One assay deals with T1, rat OX1R (Rattus norvegicus, UniProt P56718).
T1 construct: expressed in transfected cells; host or cells: HEK; cells from GNF, San Diego
T1 sequence (P56718 1-416): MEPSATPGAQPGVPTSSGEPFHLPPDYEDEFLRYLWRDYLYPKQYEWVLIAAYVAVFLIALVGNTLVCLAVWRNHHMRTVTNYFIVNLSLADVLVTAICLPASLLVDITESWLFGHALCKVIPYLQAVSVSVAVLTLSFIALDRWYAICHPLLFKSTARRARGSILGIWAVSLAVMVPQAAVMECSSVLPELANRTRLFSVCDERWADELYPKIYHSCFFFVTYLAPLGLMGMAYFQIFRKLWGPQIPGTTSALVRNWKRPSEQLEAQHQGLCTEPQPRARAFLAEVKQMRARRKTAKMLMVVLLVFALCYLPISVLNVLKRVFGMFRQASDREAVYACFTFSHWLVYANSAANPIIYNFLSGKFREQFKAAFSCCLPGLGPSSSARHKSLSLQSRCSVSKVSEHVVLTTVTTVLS
As to the kind of experiment: FLIPR orexin A-stimulated calcium accumulation, rat OX1R. The assay is classed as cell-based. As to conditions: HEK cells. On the procedure: (§1) Chinese Hamster Ovary (CHO) cells stably transfected with the cDNA encoding the human OX1R (CHO-hOX1) or OX2R (CHO-hOX2) were used (kindly provided by T. Cremer and Dr. S. Geisse, NIBR Basel, Switzerland). For measurements of calcium accumulation using FLIPR® (Fluorescent Imaging Plate Reader) assay, CHO or Human Embryonic Kidney (HEK) cells stably expressing mouse, rat or human OX1R or OX2R (kindly provided by Dr. A. Chen, GNF, San Diego, CA, USA) were used. All cells were cultured in 1:1 Dulbecco's Modified Eagle's Medium (DMEM)/Ham's F12 Nutrients Mixture (F12) supplemented with 10% (v/v) fetal bovine serum (FBS), 100 μ/ml (100 g/ml)/streptomycin (100 μg/ml), Fungizone (250 μg/ml), and Geneticin (G418, 50 mg/ml). Cells were maintained in a humidified incubator at 37°C in 5% CO2. For crude cell membrane preparations, cells were washed and harvested in 10 mM HEPES (pH 7.5), and centrifuged at 4°C for 5 min at 2500 g. The cell pellet was either stored at −80°C or used directly.
(§2) Cells expressing either human, rat or mouse OX1R or OX2R were seeded at 8,000 cells/well in black 384 well clear bottom plates and incubated overnight at 37°C. The following day, medium was discarded and cells loaded with 50 μ l of 1 mM Fluo-4 AM (Invitrogen F14202) in dimethyl sulfoxide in working buffer (Hanks' balanced salt solution, 10 mM HEPES) and incubated for 60 min at 37°C. The loading buffer was removed and cells were washed with 100 μ l working buffer containing […], 0.1% BSA, and 2.5 mM Probenecid (pH 7.4) to remove the excess Fluo-4 AM. […] The assay plate was then transferred to the Molecular Devices-FLIPR384. The baseline calcium signal was recorded for 10 s, then the antagonist of interest was injected (10 μl at 3 times the final concentration) and the calcium signal recorded every second for 1 min, then every 2 s 40 times. Plates were then incubated at room temperature for 30 min, 1, 2, or 4 h.

In another assay the target is T2, rat OX2R (Rattus norvegicus, UniProt P56719).
T2 sequence (P56719 1-460): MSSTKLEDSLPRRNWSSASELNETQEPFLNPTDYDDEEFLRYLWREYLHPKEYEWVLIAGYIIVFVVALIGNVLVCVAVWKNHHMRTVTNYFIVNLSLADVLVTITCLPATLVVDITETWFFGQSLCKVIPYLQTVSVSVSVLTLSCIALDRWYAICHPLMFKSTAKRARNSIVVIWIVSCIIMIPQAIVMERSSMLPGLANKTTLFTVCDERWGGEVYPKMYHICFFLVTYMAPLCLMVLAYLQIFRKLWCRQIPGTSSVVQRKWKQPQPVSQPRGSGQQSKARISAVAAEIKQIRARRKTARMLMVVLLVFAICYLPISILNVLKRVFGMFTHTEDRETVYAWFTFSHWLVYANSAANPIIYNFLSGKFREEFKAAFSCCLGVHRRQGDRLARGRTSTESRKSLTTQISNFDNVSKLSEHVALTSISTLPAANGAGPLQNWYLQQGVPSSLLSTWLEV
As to the kind of experiment: FLIPR orexin A-stimulated calcium accumulation, rat OX2R. The assay is classed as cell-based. The following applies: HEK cells.
Text: as §1, with “All cells were cultured in 1:1 Dulbecco's Modified Eagle's Medium (DMEM)/Ham's F12 Nutrients Mixture (F12) supplemented with 10% (v/v) fetal bovine serum (FBS), 100 μ/ml (100 g/ml)/streptomycin (100 μg/ml), Fungizone (250 μg/ml), and Geneticin (G418, 50 mg/ml).” left out
as §2, with “times.” for “times. Plates were then incubated at room temperature for 30 min, 1, 2, or 4 h.”

Setting [1] is: antagonist incubation 30 min, read-out: pKi (converted).
Where [2] appears, read: antagonist incubation 1 h, read-out: pKi (converted).
The mark [3] stands for this setting: antagonist incubation 2 h, read-out: pKi (converted).
[4] abbreviates: antagonist incubation 4 h, read-out: pKi (converted).

Like-named read-outs stand apart in the source and are kept apart here.

On to `CNC(=O)[C@@H](c1ccccc1)N1CCc2cc(OC)c(OC)cc2[C@@H]1CCc1ccc(C(F)(F)F)cc1` [Almorexant], for which the Ki at rat OX1R (antagonist incubation 30 min) was 12600 pM; on rat OX1R (antagonist incubation 1 h), 12600 pM; at rat OX1R (antagonist incubation 2 h), 11200 pM; on rat OX1R (antagonist incubation 4 h), 17400 pM; on rat OX2R (setting [1]), 5620 pM; on rat OX2R (setting [2]), 2240 pM. Also, the results for the Ki on rat OX2R (setting [3]) and on rat OX2R (setting [4]) were 1020 pM and 661 pM, respectively.
With `Cc1ccc(-c2ncccn2)c(C(=O)N2C[C@H](COc3ccc(F)cn3)CC[C@H]2C)c1` [Filorexant], the Ki on rat OX1R (antagonist incubation 30 min) was 759 pM; on rat OX1R (antagonist incubation 1 h) it was 617 pM; on rat OX1R (antagonist incubation 2 h), 501 pM; on rat OX1R (antagonist incubation 4 h), 1200 pM; at rat OX2R (setting [1]), 741 pM; at rat OX2R (setting [2]) it was 417 pM. In addition, the Ki is 251 pM at rat OX2R (setting [3]) and 178 pM at rat OX2R (setting [4]).
Take `COc1ccnc(N2CCC3(CCCN(Cc4c[nH]c5ccccc45)C3=O)CC2)n1` [IPSU, 2-((1H-Indol-3-yl)methyl)-9-(4-methoxypyrimidin-2-yl)-2,9-diazaspiro[5.5]undecan-1-one]: the Ki on rat OX1R (antagonist incubation 30 min) was 224000 pM; at rat OX1R (antagonist incubation 1 h), 240000 pM; on rat OX1R (antagonist incubation 2 h) it was 275000 pM; on rat OX1R (antagonist incubation 4 h) it was 562000 pM; at rat OX2R (setting [1]), 23400 pM; on rat OX2R (setting [2]), 28200 pM. Also, the Ki was 24000 pM at rat OX2R (setting [3]) and 28200 pM at rat OX2R (setting [4]).
Consider `Cc1nc(C(=O)N2CCCC[C@H]2CNC(=O)c2cccc3occc23)c(-c2ccc(F)cc2)s1` [SB-649868], for which the Ki on rat OX1R (antagonist incubation 30 min) is 257 pM; at rat OX1R (antagonist incubation 1 h), 126 pM; at rat OX1R (antagonist incubation 2 h), 67.6 pM; on rat OX1R (antagonist incubation 4 h), 72.4 pM; on rat OX2R (setting [1]), 457 pM; on rat OX2R (setting [2]), 316 pM. Moreover, the Ki at rat OX2R (setting [3]) was 155 pM; on rat OX2R (setting [4]), 141 pM.
For `Cc1ccc(-n2nccn2)c(C(=O)N2CCN(c3nc4cc(Cl)ccc4o3)CC[C@H]2C)c1` [Suvorexant], the Ki at rat OX2R (pKi, antagonist incubation 30 min) was 1950 pM; at rat OX2R (pKi, antagonist incubation 1 h), 871 pM; at rat OX2R (pKi, antagonist incubation 2 h), 603 pM; on rat OX2R (pKi, antagonist incubation 4 h), 427 pM.

The values above are taken from PMC3847553, “Kinetic properties of “dual” orexin receptor antagonists at OX1R and OX2R orexin receptors” (Frontiers in Neuroscience, 2013).
